Test results as given in US7094781B2, “Sulfamides and their use as endothelin receptor antagonists” (Actelion Pharmaceuticals Ltd., priority 2000, dated 2006).

What was measured:
[1] = biological target: T1, human recombinant ETA receptor (Homo sapiens, UniProt P25101); assay: Inhibition of [125I]ET-1 binding to membranes from CHO cells carrying human ETA receptors
T1 construct: expressed in transfected cells; host or cells: CHO cells (microsomal membranes)
T1 sequence (P25101 21-427): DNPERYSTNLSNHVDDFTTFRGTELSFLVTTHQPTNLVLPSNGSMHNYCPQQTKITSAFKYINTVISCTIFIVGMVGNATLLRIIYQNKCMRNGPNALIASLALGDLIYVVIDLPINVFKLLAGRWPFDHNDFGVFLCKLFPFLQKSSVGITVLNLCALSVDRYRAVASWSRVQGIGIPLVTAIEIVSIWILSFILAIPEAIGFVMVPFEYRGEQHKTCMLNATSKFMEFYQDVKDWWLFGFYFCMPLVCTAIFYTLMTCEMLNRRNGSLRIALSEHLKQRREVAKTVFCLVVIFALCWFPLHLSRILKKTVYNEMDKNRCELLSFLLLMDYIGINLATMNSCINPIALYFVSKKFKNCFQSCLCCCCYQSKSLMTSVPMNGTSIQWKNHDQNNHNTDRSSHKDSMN

[2] = biological target: T2, human recombinant ETB receptor (Homo sapiens, UniProt P24530); assay: Inhibition of [125I]ET-1 binding to membranes from CHO cells carrying human ETB receptors
T2 construct: expressed in transfected cells; host or cells: CHO cells (microsomal membranes)
T2 sequence (P24530 27-442): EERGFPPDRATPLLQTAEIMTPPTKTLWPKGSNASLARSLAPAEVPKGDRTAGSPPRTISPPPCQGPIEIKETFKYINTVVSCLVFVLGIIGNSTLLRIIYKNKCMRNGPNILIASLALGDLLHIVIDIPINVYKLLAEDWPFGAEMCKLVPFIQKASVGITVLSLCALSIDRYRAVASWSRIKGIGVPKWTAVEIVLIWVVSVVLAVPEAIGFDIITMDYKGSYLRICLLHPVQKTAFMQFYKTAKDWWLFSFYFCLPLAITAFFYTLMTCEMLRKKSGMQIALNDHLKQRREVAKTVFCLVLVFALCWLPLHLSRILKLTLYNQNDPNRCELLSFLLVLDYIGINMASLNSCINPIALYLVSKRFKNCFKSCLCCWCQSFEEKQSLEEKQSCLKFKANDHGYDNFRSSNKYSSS

| Compound | IC50 [1] [nM] | IC50 [2] [nM] |
| --- | --- | --- |
| COc1ccccc1Oc1c(NS(=O)(=O)NCc2ccccc2)nc(C2CC2)nc1OCCOc1ncc(SC)cn1 [Example 90] | 7.4 | 433 |
| Cc1cnc(OCCOc2ncnc(NS(=O)(=O)NCc3ccccc3)c2-c2ccc(Cl)cc2)nc1 [Example 16] | 45 | 8450 |
| COc1ccccc1Oc1c(NS(=O)(=O)NCc2cccs2)nc(-c2ccncc2)nc1OCCOc1ncc(Br)cn1 [Example 80] | 10 | > 1000 |
| COc1cnc(OCCOc2ncnc(NS(=O)(=O)NCC3CC3)c2-c2ccc(Cl)cc2)nc1 [Example 113] | 4.26 | 581 |
| COc1cnc(OCCOc2nc(-c3ncccn3)nc(NS(=O)(=O)N(C)Cc3ccccc3)c2Oc2ccccc2OC)nc1 [Example 188] | 11 | 290 |
| COc1cnc(OCCOc2nc(-c3ccncc3)nc(NS(=O)(=O)NCc3ccccc3)c2-c2ccc(Cl)cc2)nc1 [Example 111] | 12.3 | 3750 |
| COc1ccccc1Oc1c(NS(=O)(=O)NCc2ccc(Cl)cc2)nc(-c2ncccn2)nc1OCCOc1ncc(Br)cn1 [Example 56] | 6.9 | 164 |
| O=S(=O)(NCc1cccs1)Nc1ncnc(OCCOc2ccc(C(F)(F)F)cn2)c1-c1ccc(Cl)cc1 [Example 22] | 12 | 434 |
| COc1ccccc1Oc1c(NS(=O)(=O)NCCc2ccccc2)nc(-c2ccncc2)nc1OCCOc1ncc(Br)cn1 [Example 182] | 29 | 1870 |
| COc1ccc(Cl)c(Oc2c(NS(=O)(=O)NCc3ccccc3)ncnc2OCCO)c1 [Example 211, Benzylsulfamic acid [5-(2-chloro-5-methoxy-phenoxy)-6-(2-hydroxy-ethoxy)-pyrimidin-4-yl]-amide] | 290 | 722 |
| COc1cnc(OCCOc2nc(-c3ccncc3)nc(NS(=O)(=O)NCC3CC3)c2Oc2ccccc2OC)nc1 [Example 124] | 7.3 | 102 |
| COc1ccccc1Oc1c(NS(=O)(=O)NCc2ccccc2)nc(N2CCOCC2)nc1OCCO [Example 205, benzylsulfamic acid [6-(2-hydroxy-ethoxy)-5-(2-methoxy-phenoxy)-2-morpholin-4-yl-pyrimidin-4-yl]-amide] | 135 | 623 |
| COc1cnc(OCCOc2nc(-c3ncccn3)nc(NS(=O)(=O)NCc3ccco3)c2Oc2ccccc2OC)nc1 [Example 59] | 5.6 | 124 |
| COc1cnc(OCCOc2ncnc(NS(=O)(=O)NCc3ccccc3)c2-c2ccc(Cl)cc2)nc1 [Example 15] | 18.5 | 2160 |
| COc1ccccc1Oc1c(NS(=O)(=O)NCc2ccccc2)nc(-c2ccnc(-c3nnn[nH]3)c2)nc1OC [Example 207, benzylsulfamic acid [6-methoxy-5-(2-methoxy-phenoxy)-2-[2-(1H-tetrazol-5-yl)-pyridin-4-yl]-pyrimidin-4-yl]-amide] | 17 | > 1000 |
| COc1ccccc1Oc1c(NS(=O)(=O)NCc2ccccc2)nc(-c2ncccn2)nc1OCCOc1ncccn1 [Example 39] | 32.7 | 524 |
| COc1cnc(OCCOc2nc(C3CC3)nc(NS(=O)(=O)NCc3ccccc3)c2Oc2ccccc2OC)nc1 [Example 89] | 19 | 621 |
| C#CCOc1nc(-c2ccncc2)nc(NS(=O)(=O)NCc2ccc(OC)cc2)c1Oc1ccccc1OC [Example 160] | 11 | 3220 |
| COc1ccccc1Oc1c(NS(=O)(=O)Nc2ccc(C(C)C)cc2)nc(-c2ccncc2)nc1OCCOc1ncccn1 [Example 4, 4-i-propyl-phenyl sulfamic acid-[6-[2-(pyrimidin-2-yloxy)-ethoxy]-5-(o-methoxyphenoxy)-2-(4-pyridyl)-pyrimidin-4-yl]-amide] | 96 | 680 |
| COc1ccccc1Oc1c(NS(=O)(=O)NCc2ccccn2)nc(-c2ncccn2)nc1OCCOc1nccs1 [Example 157] | 42.2 | 954 |
| COc1cnc(OCCOc2nc(-c3ncccn3)nc(NS(=O)(=O)NCC3CC3)c2Oc2ccccc2OC)nc1 [Example 127] | 7.3 | 87 |
| Cc1ccc(-c2c(NS(=O)(=O)NCc3ccccc3)nc(-c3ccncc3)nc2OCCOC(=O)Nc2ccccn2)cc1 [Example 34] | 23 | 3270 |
| COc1ccc(CNS(=O)(=O)Nc2nc(-c3ncccn3)nc(OCCOc3ncccn3)c2Oc2ccccc2OC)cc1OC [Example 167] | 5.2 | 6.4 |
| COc1ccccc1Oc1c(NS(=O)(=O)NCC2CCCCC2)nc(-c2ccncc2)nc1OCCOc1ncc(Br)cn1 [Example 130] | 3.7 | 347 |

The remaining compounds from weak to strong by IC50 [1], led by results:

| IC50 [1] [nM] | IC50 [2] [nM] | Compound |
| --- | --- | --- |
| 3.7 | 609 | CSc1cnc(OCCOc2nc(-c3ccncc3)nc(NS(=O)(=O)NCc3ccccc3)c2-c2ccc(C)cc2)nc1 [Example 33] |
| 3.6 | > 1000 | CN(Cc1ccccc1)S(=O)(=O)Nc1ncnc(OCCOc2ncc(Br)cn2)c1-c1ccc(Cl)cc1 [Example 193] |
| 3.1 | 35 | COc1cnc(OCCOc2nc(-c3ncccn3)nc(NS(=O)(=O)NCc3ccc(F)cc3)c2Oc2ccccc2OC)nc1 [Example 143] |
| 2.5 | 79 | COc1ccccc1Oc1c(NS(=O)(=O)NCc2ccccc2)nc(C2CC2)nc1OCCOC(=O)Nc1ccccn1 [Example 91] |
| 2.2 | > 1000 | CCNS(=O)(=O)Nc1ncnc(OCCOc2ncc(Br)cn2)c1-c1ccc(Cl)cc1 [Example 115] |
| 1.94 | > 1000 | O=S(=O)(NCc1ccccc1)Nc1nc(-c2ccncc2)nc(OCCOc2ncc(Br)cn2)c1-c1ccc(Cl)cc1 [Example 109] |
| 1.64 | > 1000 | Cc1ccc(-c2c(NS(=O)(=O)NCc3ccc4c(c3)OCO4)ncnc2OCCOc2ncc(Br)cn2)cc1 [Example 145] |
| 1.6 | 200 | COc1ccccc1Oc1c(NS(=O)(=O)NCc2ccco2)nc(-c2ncccn2)nc1OCCOC(=O)Nc1cnccn1 [Example 61] |
| 1.55 | 92 | COc1ccccc1Oc1c(NS(=O)(=O)NCc2ccccc2)ncnc1OCCOc1ncc(SC)cn1 [Example 97] |
| 1.46 | 46.6 | COc1ccc(CNS(=O)(=O)Nc2nc(-c3ncccn3)nc(OCCOc3ncc(Br)cn3)c2Oc2ccccc2OC)cc1 [Example 48] |
| 1.1 | 79 | COc1cnc(OCCOc2ncnc(NS(=O)(=O)NCc3ccc4c(c3)OCO4)c2Oc2cc(OC)ccc2Cl)nc1 [Example 152] |
| 0.77 | 57 | COc1ccc(Cl)c(Oc2c(NS(=O)(=O)NCc3ccc4c(c3)OCO4)ncnc2OCCOc2ncc(Br)cn2)c1 [Example 151] |
| 0.69 | 203 | CCNS(=O)(=O)Nc1ncnc(OCCOc2ncc(SC)cn2)c1-c1ccc(Br)cc1 [Example 105] |
| 0.52 | 257 | O=S(=O)(NCC1CC1)Nc1ncnc(OCCOc2ncc(Br)cn2)c1-c1ccc(Cl)cc1 [Example 112] |
| 0.34 | 611 | CCCCNS(=O)(=O)Nc1ncnc(OCCOc2ncc(SC)cn2)c1-c1ccc(Cl)cc1 [Example 118] |
| 0.28 | 56 | CSc1cnc(OCCOc2ncnc(NS(=O)(=O)NCC3CC3)c2-c2ccc(Br)cc2)nc1 [Example 108] |
